≈ marks a conversion by molar mass, not a printed value.
Legend:
[1] = test system: mice; experiment: Acute intravenous toxicity (LD50); assay type: in vivo; settings: one intravenous dose, observed for 14 days
Procedure: (§1) The acute intravenous toxicity of 3,5-dibromo-2,6-dinitrobenzoic acid in mice is assessed by determining the mean lethal dose (LD50) using a well-known method. Mice are fed a standard laboratory diet for 8-10 weeks. Five animals of each sex are administered one intravenous dose of 3,5-dibromo-[…] acid. The animals are observed for 14 days, and the number of deaths noted.

[2] = test system: Candida albicans; experiment: Relative in vitro efficacy (growth inhibition of Candida albicans on agar replicate plates); assay type: cell-based; settings: 100-150 cells of Candida albicans plated on replicate agar plates containing 15 μg of compound
Procedure: These relative efficacy numbers were obtained by plating 100-150 cells of Candida albicans on replicate agar plates containing 15 μg of the named compound and by determining the relative growth inhibition of each compound.

[3] = test system: Candida albicans; experiment: In Vitro fungicidal test (number of colonies/plate); settings: for Number of Colonies/Plate, Plate No. 1 / Number of Colonies/Plate, Plate No. 2 / Number of Colonies/Plate, Plate No. 3 / Number of Colonies/Plate, Plate No. 4 / Number of Colonies/Plate, Plate No. 5 / Number of Colonies/Plate, Plate No. 6 / Number of Colonies/Plate, Plate No. 7 / Number of Colonies/Plate, Plate No. 8 / Number of Colonies/Plate, Plate No. 9: drug final concentration 0.1 mg/ml, 80 min at 30° C., plates 48 hours; for Number of Colonies/Plate, Plate No. 1: plate 1; for Number of Colonies/Plate, Plate No. 2: plate 2; for Number of Colonies/Plate, Plate No. 3: plate 3; for Number of Colonies/Plate, Plate No. 4: plate 4; for Number of Colonies/Plate, Plate No. 5: plate 5; for Number of Colonies/Plate, Plate No. 6: plate 6; for Number of Colonies/Plate, Plate No. 7: plate 7; for Number of Colonies/Plate, Plate No. 8: plate 8; for Number of Colonies/Plate, Plate No. 9: plate 9
Procedure: The 10% wlw malt extract, 2% agar solution used for plating in this test was prepared by mixing 100 g malt extract, 20 g agar, and a pellet of sodium hydroxide (about 0.1 g) in 1 liter of distilled, deionized water (DDW). This solution was sterilized by autoclaving, and then poured into plates.
The yeast-malt (YM) broth was composed of 3 g yeast extract, 3 g malt extract, 5 g peptone, and 10 g glucose in 1 liter DDW. The solution was brought to pH 7.2 with inorganics (e.g., hydrochloric acid or sodium hydroxide), then sterilized by autoclaving.
Stock solutions of the drugs to be tested were made in a mixture of dimethylformamide (DMF) and 0.05 M phosphate buffer at pH 7.2, combined in a 4:6 ratio of DME to buffer. Test solutions of 1 mg/ml solutions were prepared.
Two control solutions were prepared. One was the phosphate buffer as described above, the other was a mixture of DMF and the buffer in a 4:6 ratio as described above.
All drug and control solutions were sterilized by filtration through a 0.2 g filter.

[4] = test system: Trichophyton; experiment: Serial Dilution Assay, Trichophyton; assay type: cell-based; settings: 24 hours at 30°, OD 600 nm
Procedure: (§2) Serial dilution assays of 3,5-dibromo-2,6-dinitrobenzoic acid and nystatin were performed on Candida albicans, Trichophyton or Asperigillus. 9 ml (1×10^4 cells) of each diluted yeast suspension was added to 1 ml of various serial dilutions of the drug to be tested in 15 ml centrifuge tubes. The final drug concentrations ranged from 0.1 to 0.0001 mg/ml. Two control tubes were also prepared using DDW instead of a drug solution. The tubes were capped and incubated for 24 hours at 30° with shaking at 200 rpm. The fungal growth was assessed by measuring optical density at 600 nm using a nephelometer.

[5] = test system: Asperigillus; experiment: Serial Dilution Assay, Aspergillus; assay type: cell-based
Procedure: as §2

[6] = Acute intravenous toxicity (LD50); assay type: in vivo; settings: mouse, in vivo; mice, one intravenous dose, observed for 14 days
Procedure: as §1

[7] = test system: Candida albicans; experiment: Serial Dilution Assay, Candida albicans; assay type: cell-based; settings: 24 hours at 30°, OD 600 nm
Procedure: as §2

[8] = test system: Pneumocystis carinii; experiment: Pneumocystis carinii short term culture, viability by incorporation of [3H] para-aminobenzoic acid; assay type: cell-based; settings: fungus removed from rat lungs, read-out: IC50 against Pneumocystis carinii
Procedure: (§3) In comparison, the IC50 of pentamidine, the agent now widely used to counter P. carinii fungus infections, was 2 μg/ml.

[9] = test system: C. albicans C316; experiment: Stability and activity against C. albicans C316 in various broth media; assay type: cell-based; settings: even in the presence of 50% mouse serum
Procedure: as §3

[10] = test system: nine fungal strains (Candida spp., Cryptococcus neoformans, Aspergillus fumigatus); experiment: Minimum inhibitory concentration, first independent laboratory (broth); assay type: cell-based; settings: HR/Mops broth and Sabouraud dextrose broth
Procedure: Additional in vitro evaluation of the antifungal activity of the compounds was performed by two independent testing laboratories. One laboratory found the minimum inhibitory concentration (μg/ml), in fungal strains, of 3,5-dichloro-2,6-dinitrobenzoic acid to range from 1.56 to 6.3 when nine fungal strains (Candida spp., Cryptococcus neoformans, Aspergillus fumigatus) were tested in HR/Mops broth and Sabouraud dextrose broth.

[11] = Water solubility; assay type: physicochemical; settings: in words
[12] = test system: wide range of fungi; experiment: Minimum inhibitory concentration, second independent laboratory (standard agar dilution method), fungi; assay type: cell-based; settings: Isosensitest agar
Procedure: (§4) The second laboratory compared the minimum inhibitory concentrations (μg/ml) of 3,5-dichloro-2,6-dinitrobenzoic acid and Amphotericin B, an antifungal agent. The strains were plated, in the standard agar dilution method, on Isosensitest agar containing a single antifungal agent. […] As such, when Amphotericin B is tested in agar, its activity appears higher than it would in vivo.

[13] = test system: bacteria; experiment: Activity against bacteria, second independent laboratory (standard agar dilution method); assay type: cell-based; settings: Isosensitest agar
Procedure: as §4

[14] = test system: mice; settings: mouse, in vivo; cited from earlier work
[15] = read-out: final concentration at which fungal growth was completely inhibited

| Compound | Relative In Vitro Efficacy [2] | Number of Colonies/Plate, Plate No. 1 [3] | Number of Colonies/Plate, Plate No. 2 [3] | Number of Colonies/Plate, Plate No. 3 [3] | Number of Colonies/Plate, Plate No. 4 [3] | Number of Colonies/Plate, Plate No. 5 [3] | Number of Colonies/Plate, Plate No. 6 [3] | Number of Colonies/Plate, Plate No. 7 [3] | Number of Colonies/Plate, Plate No. 8 [3] | Number of Colonies/Plate, Plate No. 9 [3] | other results |
| --- | --- | --- | --- | --- | --- | --- | --- | --- | --- | --- | --- |
| 2,4-dibromo-3,5-dinitrobenzoic acid | – | – | – | – | – | – | – | – | – | – | LD50 [1]: 240 mg/kg |
| O=C(O)c1cc([N+](=O)[O-])c(Cl)c([N+](=O)[O-])c1Cl [2,4-dicholoro-3,5-dinitro benzoic acid] | 10 | – | – | – | – | – | – | – | – | – | – |
| C[C@@H]1[C@H](O)[C@@H](C)/C=C/C=C/C=C/C=C/C=C/C=C/C=C/[C@H](O[C@@H]2O[C@H](C)[C@@H](O)[C@H](N)[C@@H]2O)C[C@@H]2O[C@](O)(C[C@@H](O)C[C@@H](O)[C@H](O)CC[C@@H](O)C[C@@H](O)CC(=O)O[C@H]1C)C[C@H](O)[C@H]2C(=O)O [Amphotericin B, amphotericin B] | – | 50 | 15 | 9 | 56 | 51 | 48 | 55 | 65 | 64 | – |
| O=C(O)c1c([N+](=O)[O-])c(Br)cc(Br)c1[N+](=O)[O-] [Example 1, 3,5-dibromo-2,6-dinitrobenzoic acid] | 100 | – | – | – | – | – | – | – | – | – | MIC [4, 15]: 1.5 µg/mL (≈ 4.06 µM); MIC ([5]; 24 h, read-out: final concentration at which fungal growth was completely inhibited): 1.5 µg/mL (≈ 4.06 µM); LD50 at 336 h [6]: ~240 mg/kg; MIC [7, 15]: 1.5 µg/mL (≈ 4.06 µM) |
| O=C(O)c1c([N+](=O)[O-])c(Cl)cc(Cl)c1[N+](=O)[O-] [Example 2, 3,5-dichloro-2,6-dinitrobenzoic acid] | 100 | 22 | 4 | 3 | 31 | 28 | 33 | 20 | 19 | 25 | IC50 [8]: 17 µg/mL (≈ 60.5 µM); stability and activity against C. albicans C316 [9]: remained stable and active; MIC [10]: 1.56 to 6.3 µg/mL (≈ 5.55 to 22.4 µM); water solubility [11]: water soluble; fungicidal activity relative to amphotericin B ([3]; from Table 2): about twice as effective as amphotericin B; fungicidal activity relative to ketoconazole ([3]; from Table 2): about four times as effective as ketoconazole; fungal inhibition compared with Amphotericin B ([12]; agar-plate conditions optimized for Amphotericin B): less fungal inhibition than Amphotericin B; MIC ([12]; wide range of fungi): 4 to 31 µg/mL (≈ 14.2 to 110 µM); activity against bacteria [13]: not against bacteria |
| COC(=O)c1c([N+](=O)[O-])c(Br)cc(Br)c1[N+](=O)[O-] [Example 4, methyl 3,5-dibromo-2,6-dinitrobenzoate] | 4 | – | – | – | – | – | – | – | – | – | – |
| CC(=O)N1CCN(c2ccc(OCC3COC(Cn4ccnc4)(c4ccc(Cl)cc4Cl)O3)cc2)CC1 (centres unmarked) [Ketoconazole, ketoconazole] | – | 82 | 39 | 37 | 94 | 103 | 78 | 120 | 122 | 95 | – |
| C[C@@H]1[C@H](O)[C@@H](C)/C=C/C=C/CC/C=C/C=C/C=C/C=C/C(O[C@H]2O[C@H](C)[C@@H](O)[C@H](N)[C@@H]2O)CC2O[C@](O)(CC(O)C(O)CCC(O)CC(O)CC(O)CC(=O)O[C@H]1C)CC(O)C2C(=O)O (some centres unmarked) [nystatin, reference compound] | – | – | – | – | – | – | – | – | – | – | final concentration at which fungal growth was completely inhibited [4]: 1.5 µg/mL; final concentration at which fungal growth was completely inhibited ([5]; Asperigillus, 24 hours at 30°, OD 600 nm): 1.5 µg/mL; toxicity compared with the compound of the invention tested [14]: significantly higher toxicity than the compound of the invention tested; final concentration at which fungal growth was completely inhibited [7]: 1.5 µg/mL |
| N=C(N)c1ccc(OCCCCCOc2ccc(C(=N)N)cc2)cc1 [pentamidine, reference compound] | – | – | – | – | – | – | – | – | – | – | IC50 [8]: 2 µg/mL (≈ 5.87 µM) |

Source: patent US6124352A (priority 1994, dated 2000)
